According to publication PMC11819963, “In Vitro CO-Releasing and Antioxidant Properties of Sulfonamide-Based CAI-CORMs in a H2O2-Stimulated Human Achilles Tendon-Derived Cell Model” (Molecules, 2025):
Like-named read-outs stand apart in the source and are kept apart here.

Tests used:
[1] = system: H2O2-stimulated human Achilles tendon-derived tenocytes; assay: cell cycle analysis by flow cytometry (propidium iodide); format: cell-based; details: 48 h, after H2O2 100 µM for 3 h
Experimental: (§1) Compound A and acetazolamide were administered as reference compounds.
The progression of the cell cycle was assessed by flow cytometry, as already reported. Briefly, after the pre-incubation with H2O2 (100 µM for 3 h) and the exposure time (48 h), approximately 0.5 × 10^5 cells/experimental condition were fixed with cold ethanol 70% v/v and afterwards stained with 1 mg/mL propidium iodide (PI) (final concentration 10 µg/mL) and 10 mg/mL RNAse (final concentration 100 µg/mL) and kept overnight at 4 °C in the dark. Each experiment was performed two times in triplicates per experimental condition (n = 6). Cell cycle profiles (1 × 10^4 events/sample) were finally analysed with a CytoFLEX flow cytometer (Beckman Coulter, Indianapolis, IN, USA), and data were quantified using the ModFit LT™ 4.0 software (De Novo Software, Glendale, CA, USA).

hCA IX [2] = biological target: T1, hCA IX (Homo sapiens, UniProt Q16790); assay: stopped-flow CO2 hydrase assay, hCA IX; format: biochemical; details: mean from three assays, errors ±5–10%
Experimental: (§2) The CO2 concentrations ranged from 1.7 to 17 mM for the determination of the kinetic parameters and inhibition constants. […] The uncatalysed rates were determined in the same manner and subtracted from the total observed rates. […] The inhibition constants were obtained by non-linear least-squares methods using PRISM 3 and the Cheng–Prusoff equation and represent the mean from at least three different determinations.

[3] = system: Human Achilles tendon-derived tenocytes; assay: cell metabolic activity (MTT test), basal conditions; format: cell-based; details: for cell metabolic activity (MTT): 6.25–50 µM, vs untreated control
Experimental: (§3) Human Achilles tendon-derived tenocytes (#TEN-F) were purchased by ZenBio Inc. (Durham, NC, USA) and maintained in complete alpha-MEM (EuroClone, Milan, Italy) supplemented with 10% of heat-inactivated FBS (Gibco, Thermo Fisher Scientific, Waltham, MA, USA) and 1% penicillin/streptomycin (EuroClone, Milan, Italy) at 37 °C and 5% CO2 and used from passage 3 up to passage 6.
(§4) Cells were seeded in 96-well plates (0.5 × 10^4/well) or 6-well plates (0.5 × 10^5/well) (ThermoFisher Scientific, Waltham, MA, USA) and left to adhere overnight at 37 °C and 5% CO2. For cell metabolic activity experiments (MTT test), tenocytes were treated with increasing concentrations of compounds (range 0–50 µM) for 24 and 48 h. Compounds were dissolved in DMSO to obtain a 200 mM stock solution, and they were afterwards diluted in complete alpha-MEM (DMSO final concentration = 0.1%) for further analyses. In a second set of MTT experiments, tenocytes were pre-incubated with 100 µM H2O2 for 3 h. After that, the pre-incubation medium was discarded and replaced with a fresh one containing the proper compound at increasing concentrations for 24 and 48 h. At the established time points, samples were processed for further analyses.
(§5) Tenocytes were seeded in 96 well tissue culture-treated plates (Falcon®, Corning Incorporated, Brooklyn, NY, USA) at 0.5 × 10^4 cells/well. Untreated cells (0 µM) were set as control (100% of cell metabolic activity). At the established time points, the exposure media were replaced by fresh medium containing 3-(4,5-dimethylthiazol-2-yl)-2,5-diphenyltetrazolium bromide (MTT) 0.5 mg/mL (Merck, Darmstadt, Germany) and processed as elsewhere reported [18]. The optical density in each well was measured using a spectrophotometer (Thermo Fisher Scientific, Waltham, MA, USA) at a wavelength of 540 nm. Each experiment was performed three times in triplicates per experimental condition (n = 9).

[4] = system: H2O2-stimulated human Achilles tendon-derived tenocytes; assay: collagen type I secretion (ELISA); format: cell-based; details: 48 h, after H2O2 100 µM for 3 h, compared to untreated cells, normalised on MTT
Experimental: as §1
Amounts of collagen type I secreted in supernatants harvested from 96 well plates were detected by a human collagen type 1 ELISA kit (Cosmo Bio Co., Ltd., Tokyo, Japan; cat. no. ACE-EC1-E105-EX). Samples were pipetted into suitably coated wells as described elsewhere. Each ELISA test was performed three times in duplicates per experimental condition (n = 6). The concentration of collagen type I (µg/mL) was calculated using a standard curve generated with a specific standard provided by the manufacturer by means of the Prism 5.0 software (GraphPad, San Diego, CA, USA).

hCA XII [5] = biological target: T2, hCA XII (Homo sapiens, UniProt O43570); assay: stopped-flow CO2 hydrase assay, hCA XII; format: biochemical; details: mean from three assays, errors ±5–10%
Experimental: as §2

[6] = system: reduced myoglobin (deoxy-Mb); assay: myoglobin carbonylation assay (CO release); design: species or system horse; details: for MbCO formed: after 210 min of incubation, 1:1 CORM–Mb ratio (about 20 μM CORM); for CO units released: after 300 min of incubation with Mb, 37 °C; for CO-release profile (MbCO formed over time): 1:1 and 1:6 CORM:Mb, up to 300 min, comparison within series
Experimental: To determine the CO-releasing properties of the designed compounds, the myoglobin carbonylation assay was employed, with some deviations from the standard protocol, as previously reported. The analysed compounds were incubated with reduced myoglobin (deoxy-Mb), and spectra were recorded every 30 min up to 300 min. The release of CO was assessed by evaluating the formation of carbonylated myoglobin (Mb-CO) over time (Figure 3). […] The releasing properties of the compounds were also expressed as CO units released after 300 min of incubation with Mb, as reported in Figure S1 (Supplementary Information File).
All the employed reagents were of analytical grade and acquired from Merck (Milan, Italy). Gaseous CO was obtained from Rivoira (Milan, Italy). A Shimadzu UV1900 UV-Vis Spectrophotometer from 275 to 700 nm at the scanning rate of 200 nm/min was used to record UV-Vis absorption spectra in a disposable plastic cuvette (path length 0.44 cm). The second derivative spectra were generated with the Origin Lab software, and the Savitzky–Golay method was applied using 25 data points for the differentiation process. Neither an increase nor a decrease in the number of points caused changes in the wavelength or in the bandwidth. Lyophilised horse heart Mb was dissolved in phosphate-buffered saline flushed with N2 (PBS, 0.01 M, pH 7.4 to a 20–22 μM final concentration). Two millilitres of this freshly prepared stock solution were placed in a cuvette to record the UV-Vis absorption spectrum of met-Mb. Next, the solutions were divided into two halves: 10 μL of sodium dithionite (30 mg/mL) was added to the first half (reference), and the UV–Vis spectrum of deoxy-Mb was registered. After that, the solution was flushed with CO gas, and the Mb-CO spectrum was acquired. Sodium dithionite was added to the second half (sample), and a spectrum was recorded. Afterwards, a CORM DMSO solution was added to a final CORM concentration of 1.67 μM, 3.33 μM or 20 μM and gently mixed. The solution was covered with 300 μL of light mineral oil to avoid CO escaping and oxygenation of Mb, and the absorption spectrum was recorded at t = 0. Spectra were acquired every 30 min for 300 min, keeping the sample at 37 °C. When necessary, a freshly prepared sodium dithionite solution was added. After 300 min, the total Mb concentration at the end of the assay was determined by flushing the sample with CO gas. Mb-CO concentration at each time point was determined, as previously reported. Each experiment was replicated three times, and the data were expressed as mean ± SEM.

hCA II [7] = biological target: T3, hCA II (Homo sapiens, UniProt P00918); assay: stopped-flow CO2 hydrase assay, hCA II; format: biochemical; details: mean from three assays, errors ±5–10%
Experimental: as §2

hCA I = hCA I (Homo sapiens, UniProt P00915); details: cited from earlier work
[8] = system: H2O2-stimulated human Achilles tendon-derived tenocytes; assay: cell metabolic activity (MTT test), pre-incubation with H2O2; format: cell-based; details: 6.25–50 µM, after H2O2 100 µM for 3 h
Experimental: as §3, §4, §5

hCA XII [9] = biological target: T2, hCA XII; design: method as in earlier work; details: alkyne precursors marked a in Table S1; cited from earlier work
hCA II [10] = biological target: T3, hCA II; design: method as in earlier work; details: alkyne precursors marked a in Table S1; cited from earlier work
hCA IX [11] = biological target: T1, hCA IX; design: method as in earlier work; details: alkyne precursors marked a in Table S1; cited from earlier work
[12] = stopped-flow CO2 hydrase assay, cells marked a

hCA I, sequence (P00915 whole entry): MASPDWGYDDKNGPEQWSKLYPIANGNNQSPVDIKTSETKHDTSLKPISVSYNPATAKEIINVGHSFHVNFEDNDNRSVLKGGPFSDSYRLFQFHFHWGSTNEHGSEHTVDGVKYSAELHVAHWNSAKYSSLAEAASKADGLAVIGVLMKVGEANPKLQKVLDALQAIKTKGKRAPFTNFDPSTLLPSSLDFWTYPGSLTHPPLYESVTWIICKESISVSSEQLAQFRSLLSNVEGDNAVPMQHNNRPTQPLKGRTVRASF
T2 sequence (O43570 25-354): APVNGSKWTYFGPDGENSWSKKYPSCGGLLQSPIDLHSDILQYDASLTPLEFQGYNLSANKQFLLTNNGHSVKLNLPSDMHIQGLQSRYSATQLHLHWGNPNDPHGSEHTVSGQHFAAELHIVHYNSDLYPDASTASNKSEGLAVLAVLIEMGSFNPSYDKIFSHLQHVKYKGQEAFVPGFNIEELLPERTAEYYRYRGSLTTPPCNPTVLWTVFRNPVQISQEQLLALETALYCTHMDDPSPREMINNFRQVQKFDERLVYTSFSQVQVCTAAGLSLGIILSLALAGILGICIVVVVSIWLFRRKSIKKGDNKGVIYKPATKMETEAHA

Compound | cell cycle progression (H2O2-induced G2 increase) [1] | Ki (hCA IX [2]) | cell metabolic activity (MTT) ([3]; 48 h exposure) | collagen type I secretion [4] | Ki (hCA XII [5]) | MbCO formed [6] | Ki (hCA II [7]) | cell metabolic activity (MTT) ([3]; 24 h exposure) | Ki (hCA I; [12]) | cytotoxicity (MTT) ([8]; 24 h exposure) | cytotoxicity (MTT) ([8]; 48 h exposure) | CO-release profile (MbCO formed over time) [6] | further results
4-(Diprop-2′-ynylamino)benzenesulfonamide hexacarbonyldicobalt [1c] | weakly but significantly counteract the H2O2-induced G2 increase | 0.0062 µM | constantly effective on cell metabolic activity over the concentrations | weakly but significantly increases collagen type 1 secretion | 0.0075 µM | 3.66 µM | – | – | – | – | – | – | CO units released ([6]; 1:12 CORM:Mb ratio (1.67 μM CORM)): 2.3 CO units
C#CCNc1ccc(S(N)(=O)=O)cc1.[C-]#[O+].[C-]#[O+].[C-]#[O+].[C-]#[O+].[C-]#[O+].[C-]#[O+].[Co].[Co] [1a, 4-(prop-2-ynylamino)benzenesulfonamide hexacarbonyldicobalt] | – | – | well increases cell metabolic activity at the lower concentrations | dramatically increases its secretion almost three times | – | 9.05 µM | 0.215 µM | significantly increase cell metabolic activity | 0.901 µM | cytotoxic at the highest concentrations used | reveal cytotoxicity at the highest concentrations | the fastest and most efficient releaser among the series | KI hCA IX (hCA IX [2]): ineffective; CO units released ([6]; 1:6 CORM:Mb ratio (3.33 μM CORM)): 1.6 CO units
C#CCOc1ccc(S(N)(=O)=O)cc1.[C-]#[O+].[C-]#[O+].[C-]#[O+].[C-]#[O+].[C-]#[O+].[C-]#[O+].[Co].[Co] [1b, 4-(Prop-2′-ynyloxy)benzenesulfonamide hexacarbonyldicobalt] | – | 0.0054 µM | – | – | 0.0009 µM | 6.39 µM | 0.0409 µM | significantly increase cell metabolic activity | 1.34 µM | – | – | the most efficient | concentration at which cytotoxicity is seen (MTT) ([3]; 48 h exposure): ≥ 25 µM
C#CCNc1ccc(S(N)(=O)=O)cc1 [A, 4-(prop-2-ynylamino)benzenesulfonamide, reference compound] | ineffective | – | still ineffective | do not enhance the secretion | – | – | – | – | – | – | – | – | –
CC(=O)Nc1nnc(S(N)(=O)=O)s1 [AAZ, acetazolamide, reference compound] | ineffective | – | still ineffective | do not enhance the secretion | – | – | – | – | – | cytotoxicity at the highest dose | cytotoxic at the highest concentration | – | –
C#CCN(CC#C)c1ccc(S(N)(=O)=O)cc1 [C, 4-(diprop-2′-ynylamino)benzenesulfonamide] | – | – | – | – | – | – | – | – | – | – | – | – | Ki (hCA XII [9]): 0.0049 µM; Ki (hCA I; alkyne precursors marked a in Table S1): 6.4 µM; Ki (hCA II [10]): 1.79 µM; Ki (hCA IX [11]): 0.009 µM
